Source: patent US11191288B2, “Use of a feed composition for reducing methane emission in ruminants, and/or to improve ruminant performance” (DSM IP ASSETS B.V., priority 2017, dated 2021)

How the values were obtained:
rumen liquor [1] = assay: Effect on volatile fatty acids (VFA) profile, acetate/propionate ratio (modified Hohenheim Forage value Test, HFT); assay type: cell-based; conditions: for Ace./Prop.: 8 h, 39° C., artificial TMR, average of three experiments
Description: (§1) A modified version of the “Hohenheim Forage value Test (HFT)” was used for testing the effect of specific compounds on the rumen functions mimicked by this in-vitro system.
(§2) Feed is gadded into a syringe with a composition of rumen liquor and an appropriate mixture of buffers. The solution is incubated at 39° C. After 8 hours the quantity (and composition) of gas phase produced is measured and put into a formula for conversion.
(§3) The feed stuff is sieved to 1 mm—usually TMR (44% concentrate, 6% hay, 37% maize silage and 13% grass silage)—and weighed exactly into 64 syringes. 4 of these syringes are the substrate controls, which display the gas production without the effect of the tested compounds. […] When needed, 4 syringes contain a carrier control (if the test compounds need a carrier). The remaining syringes contain the test substances, by groups of 4 syringes.
(§4) Preparation of the Medium Solution: • The components are mixed in a Woulff bottle in following order: • 711 ml water • 0.18 ml trace element solution • 355.5 ml buffer solution • 355.5 ml mass element solution • The completed solution is warmed up to 39° C. followed by the addition of 1.83 ml sodium salt solution and the addition of reduction solution at 36° C. The rumen liquor is added, when the indicator turns colourless.
(§5) 750 ml of rumen liquor are added to approximately 1,400 ml of medium solution under continued agitation and CO2-gassing.
Filling the Syringes, Incubation and Determining Gas Volumes and VFA Values:
(§6) The diluted rumen fluid (24 ml) is added to the glass syringe. The syringes are then incubated for 8 hours at 39° C. under gentle agitation. After 8 hours, the volume of gas produced is measured, and the percentage of methane in the gas phase is determined by gas chromatography.
(§7) The food fermented was artificial TMR (44% concentrate, 6% hay, 37% maize silage and 13% grass silage). Lauric acid from Sigma Aldrich was used at a concentration of 1000 μM. 3-Nitrooxy-propanol (3-NOP) was used at two different concentrations, 2.5 μM and 5 μM.
(§8) Ace.=acetate; Prop.=propionate

rumen liquor [2] = assay: In vitro test for methane production (modified Hohenheim Forage value Test, HFT); assay type: cell-based; conditions: for Total methane: 8 h, 39° C., artificial TMR, average of three experiments
Description: In Vitro Test for Methane Production:
as §1, §2, §3, §4, §5, §6, §7, §8

SMILES | Reduction vs. control (Ace./Prop.) (rumen liquor [1]; Lauric acid 1000 μM) | Ace./Prop. (rumen liquor [1]; Lauric acid 1000 μM) | Reduction vs. control (methane) (rumen liquor [2]; Lauric acid 1000 μM) | Total methane (rumen liquor [2]; Lauric acid 1000 μM) | Reduction vs. control (Ace./Prop.) (rumen liquor [1]; 3-NOP 2.5 μM) | Ace./Prop. (rumen liquor [1]; 3-NOP 2.5 μM) | Reduction vs. control (Ace./Prop.) (rumen liquor [1]; 3-NOP 5 μM) | Ace./Prop. (rumen liquor [1]; 3-NOP 5 μM) | Reduction vs. control (methane) (rumen liquor [2]; 3-NOP 2.5 μM) | Total methane (rumen liquor [2]; 3-NOP 2.5 μM) | Reduction vs. control (methane) (rumen liquor [2]; 3-NOP 5 μM) | Total methane (rumen liquor [2]; 3-NOP 5 μM)
CCCCCCCCCCCC(=O)O [Lauric acid, reference compound] | 0.28 Mole Ratio | 1.98 Mole Ratio | 0.012 mmol over 8 h | 0.255 mmol over 8 h | – | – | – | – | – | – | – | –
O=[N+]([O-])OCCCO [3-NOP, 3-Nitrooxypropanol] | – | – | – | – | 0.17 Mole Ratio | 2.09 Mole Ratio | 0.63 Mole Ratio | 1.63 Mole Ratio | 0.023 mmol over 8 h | 0.244 mmol over 8 h | 0.17 mmol over 8 h | 0.097 mmol over 8 h
